Results reported in PMC11207040, “Synthesis and Biological Studies of New Temporin A Analogs Containing Unnatural Amino Acids in Position 7” (Pharmaceutics, 2024).
Converted amounts (≈) assume the structure as drawn. Where two headings read alike, the source gives them in different places. Non-standard residues stand in square brackets, D forms with d. Residues, ends and D or L forms follow the SMILES beside them. Orn = NCCC[C@H](N)C(=O)O

Key:
[1] = test system: Pseudomonas aeruginosa NBIMCC 3700; assay type: cell-based; conditions: NBIMCC 3700, 24 h
Method: (§1) The parent peptide Temporin A and the novel analogs were subjected to tests against model strains Escherichia coli NBIMCC 8785, Bacillus subtilis NBIMCC 3562, Arthrobacter oxydans NBIMCC 9333, Pseudomonas aeruginosa NBIMCC 3700, and Candida albicans NBIMCC 74, for the assessment of their antimicrobial activity. The strains were acquired from the National Bank for Industrial Microorganisms and Cell Cultures (NBIMCC, Bulgaria). The strain E. coli 8785 was cultured in Luria-Bertani broth (LB, HiMedia, Mumbai, India); B. subtilis 3562—in nutrient broth (NB, HiMedia, Mumbai, India); A. oxydans 9333; P. aeruginosa 3700—in meat peptone agar (MPA) medium; and C. albicans 74—in yeast mold (YM) medium. An incubator shaker ES-20/60 (Biosan, Latvia) was used for the cultivation and was set to 30 °C for B. subtilis 3562, A. oxydans 9333, and C. albicans 74; and 37 °C for E. coli 8785 and P. aeruginosa 3700, with a 24 h shaking period at 120 rpm. The microbial cultures were then adjusted to a turbidity of 0.5 McFarland using a Grant-bio DEN-1B densitometer (Grant Instruments, Royston, UK) for further use.
(§2) The minimal inhibitory concentration (MIC) of the peptides was determined using the broth dilution method. Stock solutions of the peptides with a concentration of 10 mg/mL in 10% EtOH/H2O were prepared. Suspensions of the bacteria in the corresponding media were added to 96-well U-shaped bottom polystyrene plates (Deltalab S.L., Spain) and exposed to the peptide in the concentration range from 0 to 320 µg/mL, and a 10% EtOH/H2O control, diluted using the same scheme as the peptides, was also used. The plates were then incubated under aerobic conditions at the corresponding temperature for 24 h. The MIC (µg/mL) was assumed as the lowest concentration of the antimicrobial, where there was visible inhibition of the strain. The absorbance was measured at 630 nm (Microplate reader PKL PPC 142, Paramedical srl, Salerno, Italy). To determine the minimal bactericidal concentration (MBC) and minimal fungicidal concentration (MFC), 10 μL from concentrations greater than or equal to the MIC was placed on the corresponding solid nutrient medium. The Petri dishes were then incubated at 30 or 37 °C for 24 h. All experiments were conducted in a triplicate.

[2] = test system: Escherichia coli NBIMCC 8785; assay type: cell-based; conditions: NBIMCC 8785, 24 h
Method: as §1, §2

[3] = test system: Bacillus subtilis NBIMCC 3562; assay type: cell-based
Method: as §1, §2

[4] = test system: Candida albicans NBIMCC 74; assay type: cell-based; conditions: NBIMCC 74, 24 h
Method: as §1, §2

[5] = test system: Arthrobacter oxydans NBIMCC 9333; assay type: cell-based; conditions: 24 h
Method: as §1, §2

[6] = 3T3 NRU cytotoxicity/phototoxicity test; assay type: cell-based, mouse; conditions: mouse
Method: (§3) The cell lines BALB 3T3 (mouse embryonic fibroblasts) and MCF-12F (human breast epithelial cells) were used as models for healthy tissue. The MCF-7 and MDA-MB-231 cell lines were used as in vitro models for luminal A- and basal B-type breast cancer, respectively. Cell lines were obtained from the American Type Cultures Collection (ATCC, Manassas, VA, USA). Cells were cultured in Dulbecco modified Eagle’s medium (DMEM) supplemented with 10% fetal bovine serum (FBS), 100 U/mL penicillin, and 0.1 mg/mL streptomycin (Sigma-Aldrich, Schnelldorf, Germany) in an incubator at 37 °C, 5% CO2 and 95% humidity. Plastic flasks 75 cm^2 (Biologix, Lenexa, KS, USA) were used to grow the cells.
(§4) The cytotoxicity/phototoxicity testing was performed as described by the OECD Guidelines for the Testing of Chemicals, Section 4, Test No. 432: In Vitro 3T3 NRU Phototoxicity Test. BALB 3T3, clone A31 cells were grown in 75 cm^2 tissue culture flasks in DMEM high-glucose (4.5 g/L), 10% FBS, and antibiotics at 37.5 °C, in a humidified atmosphere under 5% CO2. Cells were plated at 1 × 10^4 cells / 100 μL culture medium in each well of 96-well microplates and allowed to adhere for 24 h before treatment with test compounds. Peptides were dissolved in DMSO and diluted with culture medium to working concentrations from 4 to 1000 μM. In phototoxicity tests, 96-well plates were irradiated (+Irr) with a dose of 2.4 J/cm^2 using an artificial solar light simulator Helios-iO (SERIC Ltd., Tokyo, Japan), and the cells were incubated for an additional 24 h. After treatment with a Neutral Red medium, washing, and application of the NR Desorb solution, the absorption was measured on a microplate reader at a wavelength of 540 nm. Cytotoxicity/phototoxicity was expressed as CC50 values (concentrations required for 50% cytotoxicity).

BALB 3T3 clone A31 cells = experiment: 3T3 NRU cytotoxicity/phototoxicity test; assay type: cell-based, mouse
Method: as §3, §4

MDA-MB-231 cells = experiment: MTT antiproliferative assay, MDA-MB-231; assay type: cell-based, human; conditions: for IC50: MTT, 72 h, read-out: Mean IC50 ± SD, MDA-MB-231; for SI (Selectivity Index), MDA-MB-231: SI = IC50 MCF-12F/IC50 tumor cells
Method: as §3
(§5) The antiproliferative activity testing was performed on cell cultures using the MTT-dye reduction assay. This assay is based on the metabolism of MTT to insoluble formazan by mitochondrial reductases. The formazan concentration can be determined spectrophotometrically. The measured absorption is an indicator of cell viability. Cell lines (MCF-12F, MCF-7 and MDA-MB-231) were used in the experiments. Cells were plated at a density of 1 × 10^3 cells/100 µL in each well of 96-well microplates and allowed to adhere for 24 h before treatment with test compounds. A concentration range from 4 to 1000 μM was applied for 72 h. The formazan absorption was registered using a microplate reader at λ = 540 nm. Antiproliferative activities were expressed as IC50 values (concentrations required for 50% inhibition of cell growth).

MCF-7 cells = experiment: MTT antiproliferative assay, MCF-7; assay type: cell-based, human; conditions: for IC50: MTT, 72 h, read-out: Mean IC50 ± SD, MCF-7; for SI (Selectivity Index), MCF-7: SI = IC50 MCF-12F/IC50 tumor cells
Method: as §3, §5

MCF-12F cells = experiment: MTT antiproliferative assay, MCF-12F; assay type: cell-based, human; conditions: 72 h, non-tumorigenic cell line, read-out: Mean IC50 ± SD, MCF-12F
Method: as §3, §5

[7] = test system: Pseudomonas aeruginosa NBIMCC 3700; assay type: cell-based; conditions: for Inhibition effect, P. aeruginosa 3700: zone of peptide over zone of antibiotic x 100; for Inhibition zone, P. aeruginosa 3700: 20 µL per disc, 24 h
Method: as §1
(§6) The disk-diffusion method was used as an additional method, with the aim of determining the percent inhibition of the tested samples against the model strains. Sterile plates with LB/NB/MPA/YM agar medium were inoculated on the surface with 100 μL from each microbial culture and incubated at 30 or 37 °C for 30 min, for the suspension to penetrate the agar. After that, sterile paper discs (HiMedia, Mumbai, India) with a diameter of 6 mm were soaked with 20 µL of the peptide solutions with concentrations of 1.4 mg/mL and 10 mg/mL and placed on the agar surface. Sterile paper discs with 10% EtOH/H2O were used as a negative control, and the corresponding strain antibiotic disks (HiMedia, Mumbai, India)—as a positive control. The incubation of the plate was performed at 30/37 °C for 24 h. The antimicrobial activity was analyzed by measuring the diameter of the inhibition zones in mm. The experiments were conducted in triplicates, and the average values for the percent of inhibition as a correlation between the inhibition zone of the peptides over the inhibition zone of the antibiotic multiplied by 100 were calculated.

[8] = test system: Escherichia coli NBIMCC 8785; assay type: cell-based; conditions: 20 µL per disc, 24 h
Method: as §1, §6

[9] = test system: Bacillus subtilis NBIMCC 3562; assay type: cell-based; conditions: for Inhibition effect, B. subtilis 3562: zone of peptide over zone of antibiotic x 100; for Inhibition zone, B. subtilis 3562: 20 µL per disc, 24 h
Method: as §1, §6

[10] = test system: Candida albicans NBIMCC 74; assay type: cell-based; conditions: 20 µL per disc, 24 h
Method: as §1, §6

[11] = test system: Arthrobacter oxydans NBIMCC 9333; assay type: cell-based; conditions: for Inhibition effect, A. oxydans 9333: zone of peptide over zone of antibiotic x 100; for Inhibition zone, A. oxydans 9333: 20 µL per disc, 24 h
Method: as §1, §6

CC[C@H](C)[C@H](NC(=O)CNC(=O)[C@H](CO)NC(=O)[C@H](CC(C)C)NC(=O)[C@@H](NC(=O)[C@H](CCCNC(=N)N)NC(=O)CNC(=O)[C@@H](NC(=O)[C@H](CC(C)C)NC(=O)[C@@H]1CCCN1C(=O)[C@H](CC(C)C)NC(=O)[C@@H](N)Cc1ccccc1)[C@@H](C)CC)C(C)C)C(=O)N[C@@H](CC(C)C)C(N)=O [DTA, FLPLIG-R-VLSGIL-NH2, reference compound] (H-FLPLIGRVLSGIL-NH2)
MBC, P. aeruginosa 3700 [1]: 320 µg/mL (≈ 229 µM)
MIC, E. coli 8785 [2]: 320 µg/mL (≈ 229 µM)
MBC, B. subtilis 3562 ([3]; NBIMCC 3562, 24 h): 320 µg/mL (≈ 229 µM)
MIC, B. subtilis 3562 ([3]; NBIMCC 3562, 24 h): 80 µg/mL (≈ 57.3 µM)
MIC, C. albicans 74 [4]: 320 µg/mL (≈ 229 µM)
MIC, A. oxydans 9333 [5]: 80 µg/mL (≈ 57.3 µM)
CC50 [6]: 106 ± 4.18 µM
CC50 at 24 h [6]: 105 ± 4.88 µM
PIF (photo irritation factor) (BALB 3T3 clone A31 cells): 1.01
IC50 (MDA-MB-231 cells): 115 ± 4.04 µM
SI (Selectivity Index), MDA-MB-231 (MDA-MB-231 cells): 1.20
IC50 (MCF-7 cells): 73.2 ± 3.36 µM
SI (Selectivity Index), MCF-7 (MCF-7 cells): 1.90
IC50 (MCF-12F cells): 139 ± 8.36 µM

CC[C@H](C)[C@H](NC(=O)CNC(=O)[C@H](CO)NC(=O)[C@H](CC(C)C)NC(=O)[C@@H](NC(=O)[C@H](CCCN)NC(=O)CNC(=O)[C@@H](NC(=O)[C@H](CC(C)C)NC(=O)[C@@H]1CCCN1C(=O)[C@H](CC(C)C)NC(=O)[C@@H](N)Cc1ccccc1)[C@@H](C)CC)C(C)C)C(=O)N[C@@H](CC(C)C)C(N)=O [DTOrn, FLPLIG-Orn-VLSGIL-NH2] (H-FLPLIG[Orn]VLSGIL-NH2; N-terminus assumed)
Inhibition effect, P. aeruginosa 3700 ([7]; 1.4 mg/mL): 0.0%
Inhibition effect, P. aeruginosa 3700 ([7]; 10 mg/mL): 70.6%
Inhibition zone, P. aeruginosa 3700 ([7]; peptide 1.4 mg/mL): 0.0 mm
Inhibition zone, P. aeruginosa 3700 ([7]; peptide 10 mg/mL): 11.3 ± 0.6 mm
Inhibition zone, E. coli 8785 ([8]; peptide 1.4 mg/mL): 0.0 mm
Inhibition zone, E. coli 8785 ([8]; peptide 10 mg/mL): 0.0 mm
Inhibition effect, B. subtilis 3562 ([9]; 1.4 mg/mL): 0.0%
Inhibition effect, B. subtilis 3562 ([9]; 10 mg/mL): 32.8%
Inhibition zone, B. subtilis 3562 ([9]; peptide 1.4 mg/mL): 0.0 mm
Inhibition zone, B. subtilis 3562 ([9]; peptide 10 mg/mL): 8.2 ± 0.3 mm
Inhibition zone, C. albicans 74 ([10]; peptide 1.4 mg/mL): 0.0 mm
Inhibition zone, C. albicans 74 ([10]; peptide 10 mg/mL): 0.0 mm
Inhibition effect, A. oxydans 9333 ([11]; 1.4 mg/mL): 0.0%
Inhibition effect, A. oxydans 9333 ([11]; 10 mg/mL): 43.7%
Inhibition zone, A. oxydans 9333 ([11]; peptide 1.4 mg/mL): 0.0 mm
Inhibition zone, A. oxydans 9333 ([11]; peptide 10 mg/mL): 8.3 ± 0.6 mm
MIC, B. subtilis 3562 ([3]; broth dilution, 0 to 320 µg/mL, 24 h, NI = no inhibition monitored): 160 µg/mL (≈ 118 µM)
MBC, B. subtilis 3562 ([3]; plated from concentrations ≥ MIC, 24 h): 320 µg/mL (≈ 236 µM)
MIC, A. oxydans 9333 ([5]; broth dilution, 0 to 320 µg/mL, NI = no inhibition monitored): 160 µg/mL (≈ 118 µM)
MBC, A. oxydans 9333 ([5]; plated from concentrations ≥ MIC): 160 µg/mL (≈ 118 µM)
CC50 ([6]; cytotoxicity, no irradiation, BALB 3T3 clone A31, Neutral Red uptake, read-out: Mean CC50 ± SD, −Irr): 337 ± 7.09 µM
CC50 at 24 h ([6]; phototoxicity, irradiated 2.4 J/cm^2, BALB 3T3 clone A31, Neutral Red uptake, read-out: Mean CC50 ± SD, +Irr): 345 ± 6.41 µM
PIF (photo irritation factor) (BALB 3T3 clone A31 cells; PIF = CC50 −Irr/CC50 +Irr, PIF < 2 = not phototoxic): 0.98
IC50 (MDA-MB-231 cells): 303 ± 8.67 µM
SI (Selectivity Index), MDA-MB-231 (MDA-MB-231 cells): 1.01
IC50 (MCF-7 cells): 196 ± 3.63 µM
SI (Selectivity Index), MCF-7 (MCF-7 cells): 1.56
IC50 (MCF-12F cells): 306 ± 10.8 µM
